Patent US8410145B2, “Insecticidal compounds” (Syngenta Crop Protection LLC, priority 2007, dated 2013)

Legend:
Type in all cases: in vivo
[1] = tested on: Plutella xylostella (Diamond Back Moth); assay: Plutella xylostella larvae test on artificial diet; details: 144 h, 200 ppm (concentration in well 18 ppm), L2 larvae, larval mortality and growth regulation after 6 days
Source text: (§1) Cotton leaf discs were placed on agar in a 24-well microtiter plate and sprayed with test solutions at an application rate of 200 ppm. After drying, the leaf discs were infested with 5 to L1 larvae. The samples were checked for mortality, feeding behavior, and growth regulation 3 days after treatment (DAT). The following compounds gave at least 80% control of Spodoptera littoralis: A1, A2, A3, A4, A6, A9, A10, A11, A12, A13, A14, A15, A16, A19, A20, A22, A23, A25, A26, A27, B1, B2, B3, B5, B6, B7, B8, B9, B11, B12, B13, B15, B16, B18, B19, B20, B21, B22, B24, B26, B27, B28, C1, C2, C3, C4, C5, C6, C7, C8, C9, C10, C12, C13, C16, C19, C20, C21, C22, C23, D1, D2, D3, D4, D5, D6, D7, D8, D9, D10, D11, D12, D13, D14, D15, D16, D17, D18, D19, D20, D21, D22, D23, D24. Heliothis virescens (Tobacco Budworm): Eggs (0-24 h old) were placed in 24-well microtiter plate on artificial diet and treated with test solutions at an application rate of 200 ppm (concentration in well 18 ppm) by pipetting. After an incubation period of 4 days, samples were checked for egg mortality, larval mortality, and growth regulation. The following compounds gave at least 80% control of Heliothis virescens: A1, A2, A3, A4, A13, A15, A17, A19, A20, A22, A23, A25, A26, A28, B1, B2, B3, B5, B6, B7, B9, B11, B13, B15, B18, B19, B20, B21, B25, B26, B27, B28, C1, C2, C3, C4, C5, C6, C7, C8, C9, C10, C12, C14, C16, C17, C19, C20, C21, C22, D1, D2, D3, D4, D5, D6, D7, D8, D9, D10, D11, D12, D13, D14, D15, D16, D17, D18, D19, D20, D21, D22, D23, E1, E2, E3, E4, E5. Plutella xylostella (Diamond Back Moth): 24-well microtiter plate (MTP) with artificial diet was treated with test solutions at an application rate of 200 ppm (concentration in well 18 ppm) by pipetting. After drying, the MTP's were infested with L2 larvae (7-12 per well). After an incubation period of 6 days, samples were checked for larval mortality and growth regulation. The following compounds gave at least 80% control of Plutella xylostella: A1, A3, A4, A10, All, A15, A19, A23, A25, B1, B2, B3, B5, B6, B7, B8, B9, B11, B13, B15, B18, B19, B20, B21, B26, B27, B28, C1, C2, C3, C4, C6, C7, C8, C9, C12, C16, C19, C20, C22, D1, D2, D3, D4, D5, D6, D7, D8, D9, D10, D12, D13, D14, D15, D16, D17, D18, D19, D20, D21, D22, D23, E1, E3, E5. Diabrotica balteata (Corn Root Worm): A 24-well microtiter plate (MTP) with artificial diet was treated with test solutions at an application rate of 200 ppm (concentration in well 18 ppm) by pipetting. After drying, the MTP's were infested with L2 larvae (6-10 per well). After an incubation period of 5 days, samples were checked for larval mortality and growth regulation. The following compounds gave at least 80% control of Diabrotica balteata: A2, A3, A4, A9, A11, A12, A13, A14, A15, A17, A19, A21, A22, A23, A24, A25, A26, B1, B2, B3, B6, B7, B8, B11, B13, B14, B15, B18, B19, B20, B21, B22, B26, B28, C1, C2, C3, C4, C5, C6, C7, C8, C9, C10, C12, C14, C15, C16, C19, C20, C21, C22, C23, C26, D1, D2, D4, D5, D6, D7, D8, D9, D10, D12, D14, D15, D16, D17, D18, D19, D20, D21, D22, D23, E2, E3, E5. Thrips tabaci (Onion Thrips): Sunflower leaf discs were placed on agar in a 24-well microtiter plate and sprayed with test solutions at an application rate of 200 ppm. After drying, the leaf discs were infested with an […] population of mixed ages. After an incubation period of 7 days, samples were checked for mortality. The following compounds gave at least 80% control of Thrips tabaci: B1, B7, B11, B15, B18, B19, B28, D1, D2, D3, D4, D5, D6, D7, D8, D9, D10, D12, D16, D18, D19, D20, D21, D23. Tetranychus urticae (Two-Spotted Spider Mite): Bean leaf discs on agar in 24-well microtiter plates were sprayed with test solutions at an application rate of 200 ppm. After drying, the leaf discs are infested with mite populations of mixed ages. 8 days later, discs are checked for egg mortality, larval mortality, and adult mortality. […]

[2] = tested on: Diabrotica balteata (Corn Root Worm); assay: Diabrotica balteata larvae test on artificial diet; details: 120 h, 200 ppm (concentration in well 18 ppm), L2 larvae, larval mortality and growth regulation after 5 days
Source text: as §1

[3] = tested on: Tetranychus urticae (Two-Spotted Spider Mite); assay: Tetranychus urticae bean leaf disc spray test; details: foliar, 192 h, 200 ppm spray on bean leaf discs, mite populations of mixed ages, egg, larval and adult mortality 8 days later
Source text: as §1

[4] = tested on: Thrips tabaci (Onion Thrips); assay: Thrips tabaci sunflower leaf disc spray test; details: foliar, 168 h, 200 ppm spray on sunflower leaf discs, population of mixed ages, mortality after 7 days
Source text: as §1

[5] = tested on: Spodoptera littoralis (Egyptian Cotton Leafworm); assay: Spodoptera littoralis cotton leaf disc spray test; details: foliar, 72 h, 200 ppm spray on cotton leaf discs, L1 larvae, mortality, feeding behavior, growth regulation 3 DAT
Source text: as §1

[6] = tested on: Heliothis virescens (Tobacco Budworm); assay: Heliothis virescens egg test on artificial diet; details: 96 h, 200 ppm (concentration in well 18 ppm), eggs 0-24 h old on artificial diet, egg mortality, larval mortality, growth regulation after 4 days
Source text: as §1

Measured: pest or weed control at 200 ppm

Cc1ccccc1C(=O)Nc1cc(C2=NOC(c3cc(Cl)cc(Cl)c3)(C(F)(F)F)C2)ccc1C#N (stereo not drawn) [D6]
≥ 80%: [1] | [2] | [3] | [4] | [5] | [6]

N#Cc1ccc(C2=NOC(c3cc(Cl)cc(Cl)c3)(C(F)(F)F)C2)cc1NC(=O)c1ccccc1Cl (stereo not drawn) [D7]
≥ 80%: [1] | [2] | [3] | [4] | [5] | [6]

N#Cc1ccc(C2=NOC(c3cc(Cl)cc(Cl)c3)(C(F)(F)F)C2)cc1NC(=O)c1ccc([N+](=O)[O-])cc1 (stereo not drawn) [D8]
≥ 80%: [1] | [2] | [3] | [4] | [5] | [6]

Cc1ccc(C(=O)Nc2cc(C3=NOC(c4cc(Cl)cc(Cl)c4)(C(F)(F)F)C3)ccc2C#N)cc1 (stereo not drawn) [D9]
≥ 80%: [1] | [2] | [3] | [4] | [5] | [6]

N#Cc1ccc(C2=NOC(c3cc(Cl)cc(Cl)c3)(C(F)(F)F)C2)cc1NC(=O)c1ccc(F)cc1 (stereo not drawn) [D18]
≥ 80%: [1] | [2] | [3] | [4] | [5] | [6]
